{"source": "the supplement of paper PMC11208160", "data": [{"assay": "recombinant barcode read abundance after kanamycin selection (control-corrected) (log10(CPM+1)); higher = more efficient recombination; sequences stand for … in AGTGCAGAGAAAATCGGCCAGTTTTCTCTGCCTGCAGTCCGCATGCCGT…AGATTTATGCAGCGGACTGCCTTTCTCCCAAAGTGATAAACCGGACAGTATCATGGACCGGTTTTCCCGGTAATCCGTATTTGCAAGGTTGGTTTCACT; site = the 11-nt target", "outline": "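Recombination efficiency comes from barcode counts at recombinant junctions, converted to counts per million, averaged and corrected against the control. Values appear as log10(CPM+1). They were obtained from a pooled E. coli screen in which each oligo paired a target with an IS621 bridge RNA target-binding loop, and cells were plated in duplicate on chloramphenicol/ampicillin LB agar or on chloramphenicol/ampicillin/kanamycin with 0.1 mM IPTG.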", "values": [{"sequence": "GCATGAGCTTGGGTTCTAACCTGTTGCCT (site GCTTGAGCTAG)", "recombinant barcode read abundance (log10)": 0.914}, {"sequence": "GCCAACCCTTGGGTTCTAACCTGTTGCAT (site GCCAACCCTAA)", "recombinant barcode read abundance (log10)": 0.0781}, {"sequence": "GCCAACCCTTGGGTTCTAACCTGTTGCAT (site GCCAACCCTAC)", "recombinant barcode read abundance (log10)": 0.0603}, {"sequence": "GCCAACCCTTGGGTTCTAACCTGTTGCAT (site GCCAACCCTAG)", "recombinant barcode read abundance (log10)": 0.348}, {"sequence": "GCCAACCCTTGGGTTCTAACCTGTTGCAT (site GCCAACCCTAT)", "recombinant barcode read abundance (log10)": 0}, {"sequence": "GCCAACCCTTGGGTTCTAACCTGTTGCTA (site GCCAACCCTTA)", "recombinant barcode read abundance (log10)": 0.116}, {"sequence": "GCCAACCCTTGGGTTCTAACCTGTTGCTA (site TCCAACCCTTG)", "recombinant barcode read abundance (log10)": 0.129}, {"sequence": "GCCACACCTTGGGTTCTAACCTGTTGCCT (site GCCAAACCTAG)", "recombinant barcode read abundance (log10)": 0.188}, {"sequence": "GCCACACCTTGGGTTCTAACCTGTTGCCT (site GCCACACCTAG)", "recombinant barcode read abundance (log10)": 0.222}, {"sequence": "GCCACACCTTGGGTTCTAACCTGTTGCCT (site GCCAGACCTAG)", "recombinant barcode read abundance (log10)": 0.177}, {"sequence": "GCCACACCTTGGGTTCTAACCTGTTGCCT (site GCCATACCTAG)", "recombinant barcode read abundance (log10)": 0.153}, {"sequence": "GCCAGGGCTTGGGTTCTAACCTGTTGCCG (site GCCAGGGCTCG)", "recombinant barcode read abundance (log10)": 0.461}, {"sequence": "GCCAGGGCTTGGGTTCTAACCTGTTGCCG (site GCCCGGGCTCG)", "recombinant barcode read abundance (log10)": 0.264}, {"sequence": "GCCAGGGCTTGGGTTCTAACCTGTTGCCG (site GCCGGGGCTCG)", "recombinant barcode read abundance (log10)": 0.111}, {"sequence": "GCCAGGGCTTGGGTTCTAACCTGTTGCCG (site GCCTGGGCTCG)", "recombinant barcode read abundance (log10)": 0.0195}, {"sequence": "GCCATACCTTGGGTTCTAACCTGTTGCCT (site GCCAAACCTAG)", "recombinant barcode read abundance (log10)": 0.0715}, {"sequence": "GCCATACCTTGGGTTCTAACCTGTTGCCT (site GCCACACCTAG)", "recombinant barcode read abundance (log10)": 0.0723}, {"sequence": "GCCATACCTTGGGTTCTAACCTGTTGCCT (site GCCAGACCTAG)", "recombinant barcode read abundance (log10)": 0.194}, {"sequence": "GCCATACCTTGGGTTCTAACCTGTTGCCT (site GCCATACCTAG)", "recombinant barcode read abundance (log10)": 0.199}, {"sequence": "GCCATGACTTGGGTTCTAACCTGTTGCCT (site GCCATAACTAG)", "recombinant barcode read abundance (log10)": 0.067}, {"sequence": "GCCATGACTTGGGTTCTAACCTGTTGCCT (site GCCATCACTAG)", "recombinant barcode read abundance (log10)": 0.0872}, {"sequence": "GCCATGACTTGGGTTCTAACCTGTTGCCT (site GCCATGACTAG)", "recombinant barcode read abundance (log10)": 0.132}, {"sequence": "GCCATGACTTGGGTTCTAACCTGTTGCCT (site GCCATTACTAG)", "recombinant barcode read abundance (log10)": 0}, {"sequence": "GCCCAATCTTGGGTTCTAACCTGTTGCCT (site GCCCAATCTAG)", "recombinant barcode read abundance (log10)": 1.05}, {"sequence": "GCCCAATCTTGGGTTCTAACCTGTTGCCT (site GCCCCATCTAG)", "recombinant barcode read abundance (log10)": 0.115}, {"sequence": "GCCCAATCTTGGGTTCTAACCTGTTGCCT (site GCCCGATCTAG)", "recombinant barcode read abundance (log10)": 0.176}, {"sequence": "GCCCAATCTTGGGTTCTAACCTGTTGCCT (site GCCCTATCTAG)", "recombinant barcode read abundance (log10)": 0.195}, {"sequence": "GCCCAGCCTTGGGTTCTAACCTGTTGCGG (site ACCAAGCCTCC)", "recombinant barcode read abundance (log10)": 0.0607}, {"sequence": "GCCCAGCCTTGGGTTCTAACCTGTTGCGG (site GCCCAGCCTCC)", "recombinant barcode read abundance (log10)": 2.71}, {"sequence": "GCCCTCCCTTGGGTTCTAACCTGTTGCCT (site GCACTCCCTAG)", "recombinant barcode read abundance (log10)": 0.558}, {"sequence": "GCCCTCCCTTGGGTTCTAACCTGTTGCCT (site GCCCTCCCTAG)", "recombinant barcode read abundance (log10)": 1.77}, {"sequence": "GCCCTCCCTTGGGTTCTAACCTGTTGCCT (site GCGCTCCCTAG)", "recombinant barcode read abundance (log10)": 0.0524}, {"sequence": "GCCCTCCCTTGGGTTCTAACCTGTTGCCT (site GCTCTCCCTAG)", "recombinant barcode read abundance (log10)": 0.597}, {"sequence": "GCCGGCTCTTGGGTTCTAACCTGTTGCCT (site GACGGCTCTAG)", "recombinant barcode read abundance (log10)": 0.182}, {"sequence": "GCCGGCTCTTGGGTTCTAACCTGTTGCCT (site GCCGGCTCTAG)", "recombinant barcode read abundance (log10)": 1.35}, {"sequence": "GCCTAGTCTTGGGTTCTAACCTGTTGCCA (site GCCTAGTCTTG)", "recombinant barcode read abundance (log10)": 1.13}, {"sequence": "GCCTAGTCTTGGGTTCTAACCTGTTGCCA (site TCCTAGTCTTG)", "recombinant barcode read abundance (log10)": 0.0302}, {"sequence": "GCCTCGGCTTGGGTTCTAACCTGTTGCCT (site GCATCGGCTAG)", "recombinant barcode read abundance (log10)": 0.0156}, {"sequence": "GCCTCGGCTTGGGTTCTAACCTGTTGCCT (site GCCTCGGCTAG)", "recombinant barcode read abundance (log10)": 0.134}, {"sequence": "GCCTCGGCTTGGGTTCTAACCTGTTGCCT (site GCGTCGGCTAG)", "recombinant barcode read abundance (log10)": 0.0495}, {"sequence": "GCCTCGGCTTGGGTTCTAACCTGTTGCCT (site GCTTCGGCTAG)", "recombinant barcode read abundance (log10)": 0.0313}, {"sequence": "GCCTCGTCTTGGGTTCTAACCTGTTGCCT (site GCATCGTCTAG)", "recombinant barcode read abundance (log10)": 0.0638}, {"sequence": "GCCTCGTCTTGGGTTCTAACCTGTTGCCT (site GCCTCGTCTAG)", "recombinant barcode read abundance (log10)": 0.68}, {"sequence": "GCCTCGTCTTGGGTTCTAACCTGTTGCCT (site GCGTCGTCTAG)", "recombinant barcode read abundance (log10)": 0.206}, {"sequence": "GCCTCGTCTTGGGTTCTAACCTGTTGCCT (site GCTTCGTCTAG)", "recombinant barcode read abundance (log10)": 0.0462}, {"sequence": "GCCTGAGCTTGGGTTCTAACCTGTTGCCT (site GCATGAGCTAG)", "recombinant barcode read abundance (log10)": 0}, {"sequence": "GCCTGAGCTTGGGTTCTAACCTGTTGCCT (site GCCTGAGCTAG)", "recombinant barcode read abundance (log10)": 0.303}, {"sequence": "GCCTGAGCTTGGGTTCTAACCTGTTGCCT (site GCGTGAGCTAG)", "recombinant barcode read abundance (log10)": 0.272}, {"sequence": "GCCTGAGCTTGGGTTCTAACCTGTTGCCT (site GCTTGAGCTAG)", "recombinant barcode read abundance (log10)": 0}, {"sequence": "GCCTGGGCTTGGGTTCTAACCTGTTGCCG (site GCCAGGGCTCG)", "recombinant barcode read abundance (log10)": 0.0298}, {"sequence": "GCCTGGGCTTGGGTTCTAACCTGTTGCCG (site GCCCGGGCTCG)", "recombinant barcode read abundance (log10)": 0.516}, {"sequence": "GCCTGGGCTTGGGTTCTAACCTGTTGCCG (site GCCGGGGCTCG)", "recombinant barcode read abundance (log10)": 0.114}, {"sequence": "GCCTGGGCTTGGGTTCTAACCTGTTGCCG (site GCCTGGGCTCG)", "recombinant barcode read abundance (log10)": 0.72}, {"sequence": "GCCTGGGCTTGGGTTCTAACCTGTTGCCT (site GCCTGGGCTAG)", "recombinant barcode read abundance (log10)": 0.317}, {"sequence": "GCCTGGGCTTGGGTTCTAACCTGTTGCCT (site GCCTTGGCTAG)", "recombinant barcode read abundance (log10)": 0.438}, {"sequence": "GCCTTGGCTTGGGTTCTAACCTGTTGCCT (site GCCTGGGCTAG)", "recombinant barcode read abundance (log10)": 0.195}, {"sequence": "GCCTTGGCTTGGGTTCTAACCTGTTGCCT (site GCCTTGGCTAG)", "recombinant barcode read abundance (log10)": 0.572}, {"sequence": "GCGAACCCTTGGGTTCTAACCTGTTGCTT (site GCGAACCCTAA)", "recombinant barcode read abundance (log10)": 1.47}, {"sequence": "GCGAACCCTTGGGTTCTAACCTGTTGCTT (site TCGAACCCTAA)", "recombinant barcode read abundance (log10)": 0.0595}]}]}
